{"source": "patent US20110207811A1", "about": "“USE OF CELIVARONE FOR REDUCING OCCURRENCES OF CARDIOVASCULAR HOSPITALIZATION” (SANOFI-AVENTIS, priority 2010, published 2011)", "system": "ICD patients with a LVEF of 40% or less", "assay": "clinical study ALPHEE: prevention of cardiovascular hospitalization", "type": "in vivo", "conditions": "clinical trial using amiodarone as calibrator; oral, with a meal", "text": "The primary objective of the study is to assess the efficacy of celivarone for the prevention of ICD interventions or death. The study also aims at assessing the usefulness of celivarone for reducing occurrences of cardiovascular hospitalization in treated patients.\nThis is a dose-finding multicenter, multinational, randomized, double blind, placebo controlled, parallel arm study including a positive control calibrator arm. Patients are randomized to one of three doses of celivarone or placebo or to the amiodarone calibrator arm.\nThe efficacy of celivarone is based on data regarding appropriate ICD intervention obtained by regular ICD interrogation, performed as described below, as well as on data regarding death of the randomized patients, in particular sudden death, and on data regarding cardiovascular hospitalization occurrences.\nThe study includes a one week screening period, followed by a treatment period scheduled for a minimum duration of 6 months for the last patient recruited and going from the first day of treatment to the end of treatment visit to be done 10-15 days prior to the scheduled study end date. […]\nCardiovascular hospitalization is an hospitalization with a cardiovascular cause, as assessed by the investigator. […]", "data": [{"smiles": "CCCCc1oc2ccc(C(=O)OC(C)C)cc2c1C(=O)c1ccc(CCCN(CCCC)CCCC)cc1.O=C(O)/C=C/C(=O)O", "note": "[celivarone, 2-butyl-3-[4-[3-(dibutylamino)propyl]benzoyl]-1-benzofuran-5-carboxylic acid isopropyl ester fumarate]", "values": [{"measurement": "prevention of cardiovascular hospitalization", "result": "effective"}]}]}
